How the values were obtained:
[1] = system: TMD8 subcutaneous xenograft (human diffuse large B-cell lymphoma cells); test: In vivo efficacy in TMD8 subcutaneous xenograft model; set-up: species or system mouse; conditions: 10 mg/kg and 30 mg/kg vs Ibrutinib 50 mg/kg and GDC-0853 10 mg/kg
Description: Example 7 Evaluation of In Vivo Efficacy of the Compound of the Present Invention in TMD8 Subcutaneous Xenograft Model
Objects: To investigate the anti-tumor activity of compound 19 in TMD8 subcutaneous xenograft model in nude mice.
Methods: Human diffuse large B-cell lymphoma cells TMD8 (acquired under license from Tokyo Medical and Dental University) were cultured in RPMI1640 medium containing 10% fetal bovine serum. 1×10^7 tumor cells suspended in RPMI1640 medium mixed well with Matrigel (purchased from Corning, USA) at 1:1 were implanted subcutaneously on the right flank of each male Balb/c nude mouse (Shanghai Lingchang Biotechnology Co., Ltd.), pretreated with cyclophosphamide (at a dose of 200 mg/kg, intraperitoneal injection 24 h before cell inoculation). […] All drugs were administered by oral gavage, once a day, and the vehicle control group was administered orally with 0.5% hydroxypropyl methylcellulose solution (pH=3).
Tumor volumes (tumor volume=0.5× long diameter× short diameter^2) and body weights of the mice were measured regularly. The tumor volume change and body weight were statistically analyzed, with p<0.05 considered statistically significant, and p<0.01 as extremely statistically significant.
The anti-tumor activity was evaluated by tumor growth inhibition. […]

[2] = Stability test in liver microsomes (rat); type: in vitro ADME; conditions: 1 μM compound
How it was run: (§1)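 Compound (1 μM final) incubated 30 min at 37 °C with male CD-1 mouse or male SD rat pooled liver microsomes (0.5 mg/mL) in 50 mM phosphate buffer with 3 mM MgCl2, 1 mM EDTA and NADPH-regenerating system. Quenched with acetonitrile containing internal standard; LC-MS/MS gives percent remaining relative to 0-min sample.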

[3] = Stability test in liver microsomes (mouse); type: in vitro ADME; conditions: 1 μM compound
How it was run: as §1

[4] = 0.5 mg/mL liver microsomes, 30 minutes incubation

In the case of `C[C@H]1CN(C2COC2)CCN1c1ccc(Nc2cc(-c3ccnc(-n4ccn5c6c(cc5c4=O)CC(C)(C)C6)c3CO)cn(C)c2=O)nc1` [Compound 19], the “anti-tumor efficacy compared with Ibrutinib or GDC-0853” value [1] is reported as “statistically significant superior efficacy to Ibrutinib or GDC-0853”, the “stability in rat liver microsomes compared with reference GDC-0853” value [2, 4] is reported as “better than that of the reference GDC-0853” and the “RLM, percentage of remaining compound after 30 minutes of incubation” value ([2]; rat liver microsomes, 30 min) is reported as 92.7%. For the same compound, the “stability in mouse liver microsomes compared with reference GDC-0853” value [3, 4] was “better than that of the reference GDC-0853” and the “MLM, percentage of remaining compound after 30 minutes of incubation” value ([3]; mouse liver microsomes, 30 min) was 91.8%.

From patent publication US12070457B2, “Substituted pyridines, pyridazines, pyrimidines, and 1,2,3-triazines as bruton's tyrosine kinase inhibitors” (HUTCHISON MEDIPHARMA LIMITED, priority 2020, dated 2024)
